Measured values published in patent US6649702B1, “Stabilization and acoustic activation of polymeric micelles for drug delivery” (University of Utah Research Foundation, priority 1999, dated 2003).
Several values for one entry are separate records, joined by “and”; a condition that tells them apart may be missing. Equal values may be shown once.

How the values were obtained:
[1] = Ultrasound-triggered drug release from P-triblock P-105 micelles, real-time fluorescence detection; type: physicochemical; conditions: for Drug release: 10% P-triblock P-105 micelles, 37° C.; for Drug release (mean and s.d.): 10% P-triblock
Description: A custom ultrasonic exposure chamber with real-time fluorescence detection was used to measure acoustically-triggered drug release from P-triblock PLURONIC P-105 micelles under continuous wave (CW) or pulsed ultrasound in the frequency range of 20 kHz to 90 kHz. The measurements were based on the decrease in fluorescence intensity when drug was transferred from the micelle core to the aqueous environment. Two fluorescent drugs were used: doxorubicin (DOX) and its paramagnetic analogue, ruboxyl (Rb). P-triblock PLURONIC P-105 at various concentrations in aqueous solutions was used as a micelle-forming polymer. Drug release was highest at 20 kHz ultrasound and dropped with increasing ultrasonic frequency despite much higher power densities. […] The release of DOX was higher than that of Rb due to stronger interaction and deeper insertion of Rb into the core of the micelles. Drug release was higher at lower P-triblock concentrations, which presumably results from higher local drug concentrations in the core of P-triblock micelles when the number of micelles is low. At constant frequency, drug release increased with increasing power density. At constant power density and for pulse duration longer than 0.1 s, peak release under pulsed ultrasound was the same as stationary release under CW ultrasound.
Fluorescence of the drug was excited at an excitation wavelength of 488 nm with an optical power of approximately 0.5 mW in a 2 mm diameter beam. At this light intensity no photobleaching was observed, based on the constant level of drug fluorescence during continuing irradiation for 8 hours. The drug release was quantified by measuring the changes in fluorescence emissions before, during, and after the ultrasound exposure. A fiberoptic probe (a sheathed bundle of multimode glass fibers, 3 mm entrance diameter, 0.6 numerical aperture, and 90 cm in length) was used to collect the fluorescence emission. The light passed through a dielectric bandpass filter with a 35 nm bandwidth centered at 535 nm (Omega Optical Model 535DF35) to a sensitive silicon detector (EG&G Model 450-1). The filter effectively cuts off emissions below 500 nm, including any Rayleigh-scattered laser light. The detector signal was digitized using a 12-bit AID converter (National Instruments) and sent, along with the digitized monitor photodetector signal, to a Macintosh computer for storage and processing. The analog outputs of both photodetectors were also plotted on a stripchart recorder. The temperature of the ultrasonic exposure chamber was maintained at 37° C. by circulating thermostated water throughout the sonicating bath.
The experimental procedure is described below. First, fluorescence intensity of drug in phosphate buffered saline, PBS (FPBS) was measured; then, without any changes in the experimental setup, the PBS solution was carefully removed and replaced with the drug solution in P-triblock micelles. […] The base fluorescence of the micellar solution (Fmic) was measured, after which CW or pulsed ultrasound was turned on. During the “ultrasound on” phase, fluorescence dropped as shown in FIG. 19 due to drug release from the hydrophobic core of micelles into the aqueous environment.
Digitized data were analyzed, to calculate the percentage of drug release from micelles. To reduce the noise, the data were Fourier transformed, and a small magnitude narrow band noise of unknown origin and its next three harmonics were filtered out. After Fourier filtering, the data were smoothed using a 10 point moving average. An example of the raw and filtered data is presented in FIG. 19 for DOX release from 10% P-triblock micelles.
The percent of drug release was calculated assuming that Fmic-FPBS corresponds to 100% drug release:
Release (%)=[(Fmic−Fus)/(Fmic−FPBS)]×100% (1)
where Fus is fluorescence during exposure to ultrasound. […]

[2] = system: blood proteins (albumin, fibrinogen); conditions: reported elsewhere [82]; cited from earlier work
[3] = Rb localization in P-triblock micelles and P-gel nanoparticles (EPR and fluorescence); type: physicochemical
Procedure: A dry powder of the EPR probe (16-DS) was incubated with unstabilized or stabilized micellar solutions of P-triblock for 15 mm under constant shaking. Unsolubilized probe was removed by centrifugation. The concentration of a solubilized probe was measured by the EPR. The same technique of probe introduction was used for pyrene. Water solubility of 16-DS or pyrene is very low and can be neglected. Dissolved probes are associated with P-triblock molecules and thus reflect the loading capacity, dynamics and environment of the latter. For a fluorescent drug, Rb, the same concentration of Rb (20 μg/ml) was introduced into non-stabilized and stabilized micellar P-triblock solutions at 37° C. from a stock solution. Because fluorescence of Rb within P-triblock micelles is much higher than outside micelles, the fraction of the drug within micelles can be estimated as
where Fmes is a measured fluorescence intensity, Fm is Rb fluorescence intensity when all the drug is localized in the hydrophobic core of micelles (measured in a 20% P-triblock solution at 37° C.), Fs is fluorescence intensity in non-micellar solutions (i.e., in PBS), and am is the fraction of the drug located in the hydrophobic core of micelles.
Rb was used as a spin- and fluorescent probe to monitor drug distribution in P-triblock micelles and P-gel nanoparticles.
The anthraquinone part of Rb molecule is inherently fluorescent. Rb fluorescence is quenched in collisions with water molecules; when Rb molecules are screened from collisions with water, theft fluorescence increases manifold.

Row | Drug release ([1]; 67 kHz, CW, 1.35 W/cm^2) | Drug release ([1]; 67 kHz, CW, 1.66 W/cm^2) | Drug release ([1]; 67 kHz, CW, 2.8 W/cm^2) | Drug Release from P-triblock Micelles ([1]; 20 kHz, 0.021 W/cm^2) | Drug Release from P-triblock Micelles ([1]; 90 kHz, 1.66 W/cm^2) | overall fraction of the drug in the cores of P-gel nanoparticle ([3]; EPR, P-gel heated to 37° C.) | fraction of rotationally restricted molecules ([3]; EPR, room temperature, 10% P-triblock solution without a hydrogel) | fraction of rotationally restricted molecules ([3]; EPR, room temperature, 10% P-triblock/1% poly(NiPAAm) P-gel nanoparticles) | fraction of Rb molecules localized in the hydrophobic environment of micelle cores ([3]; fluorescence, room temperature, 10% P-triblock solutions) | Drug release ([1]; 20 kHz, 0.033 W/cm^2) | Drug release ([1]; 20 kHz, 0.047 W/cm^2) | Drug release ([1]; 20 kHz, 0.058 W/cm^2) | Drug release ([1]; 67 kHz, 0.15 W/cm^2) | Drug release (mean and s.d.) ([1]; drug concentration 30 μg/ml, 67 kHz, 2.8 W/cm^2) | Drug release (mean and s.d.) ([1]; drug concentration 40 μg/ml, 67 kHz, 2.8 W/cm^2) | Compound | adsorption or binding to blood proteins (albumin, fibrinogen) [2]
1 | 0.8 ± 0.25% | 3.2 ± 0.9% | 5.5% and 5.5 ± 1.5% | Traces | traces | 73% | 71% | 78% | about 70% | – | – | – | – | – | – | COc1cccc2c1C(=O)c1c(O)c3c(c(O)c1C2=O)C[C@@](O)(/C(C)=N/N=C1CC(C)(C)N(O)C(C)(C)C1)C[C@@H]3O[C@H]1C[C@H](N)[C@H](O)[C@H](C)O1.Cl [Rb, Ruboxyl] | negligible
2 | 5.4 ± 2.3% | 8.1 ± 2.1% | 10.7 ± 0.8% | – | – | – | – | – | – | 4.6 ± 0.5% | 6.5 ± 1.1% | 9.2 ± 0.56% | 0% | 5.5%±1% | 10%±1% | COc1cccc2c1C(=O)c1c(O)c3c(c(O)c1C2=O)C[C@@](O)(C(=O)CO)C[C@@H]3O[C@H]1C[C@H](N)[C@H](O)[C@H](C)O1 [DOX, doxorubicin] | –
